These results are taken from ChEMBL document CHEMBL1156521, “Three-dimensional structure of the EphB2 receptor in complex with an antagonistic peptide reveals a novel mode of inhibition” (J Biol Chem, 2007).

Residues, ends and D or L forms follow the SMILES beside them. Some results are limits rather than exact numbers.

One assay has as its target T1, Ephrin type-B receptor 2 (Homo sapiens, UniProt P29323).
T1 sequence (P29323 whole entry): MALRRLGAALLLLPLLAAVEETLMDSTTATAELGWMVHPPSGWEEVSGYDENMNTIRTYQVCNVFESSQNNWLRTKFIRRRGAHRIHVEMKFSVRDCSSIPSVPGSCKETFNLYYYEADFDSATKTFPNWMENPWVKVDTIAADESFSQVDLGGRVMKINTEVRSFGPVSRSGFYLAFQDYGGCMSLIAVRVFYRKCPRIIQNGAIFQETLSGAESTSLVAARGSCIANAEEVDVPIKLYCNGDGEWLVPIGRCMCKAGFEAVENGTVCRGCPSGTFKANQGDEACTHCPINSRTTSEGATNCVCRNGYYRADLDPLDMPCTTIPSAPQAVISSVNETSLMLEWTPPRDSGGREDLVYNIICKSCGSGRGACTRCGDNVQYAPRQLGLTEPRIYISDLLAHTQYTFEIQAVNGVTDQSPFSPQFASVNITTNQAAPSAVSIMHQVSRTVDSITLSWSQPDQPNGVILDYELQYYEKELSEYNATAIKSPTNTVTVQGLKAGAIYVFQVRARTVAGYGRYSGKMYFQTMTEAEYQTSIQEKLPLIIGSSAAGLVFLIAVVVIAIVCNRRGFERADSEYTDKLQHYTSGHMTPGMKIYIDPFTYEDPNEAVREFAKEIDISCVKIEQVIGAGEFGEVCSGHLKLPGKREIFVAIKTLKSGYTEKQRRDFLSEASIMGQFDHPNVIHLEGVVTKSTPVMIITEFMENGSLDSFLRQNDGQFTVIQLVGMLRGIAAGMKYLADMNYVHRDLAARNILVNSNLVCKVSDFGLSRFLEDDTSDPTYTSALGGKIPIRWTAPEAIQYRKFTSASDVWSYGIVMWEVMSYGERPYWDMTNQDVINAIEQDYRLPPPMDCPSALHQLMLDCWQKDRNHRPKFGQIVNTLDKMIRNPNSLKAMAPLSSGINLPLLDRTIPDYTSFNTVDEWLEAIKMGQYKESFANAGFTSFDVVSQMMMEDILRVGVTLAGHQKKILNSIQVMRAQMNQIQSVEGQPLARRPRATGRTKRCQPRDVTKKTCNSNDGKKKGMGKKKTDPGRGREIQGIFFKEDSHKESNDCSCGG
In words: Binding affinity at human EphB2 receptor by isothermal titration calorimetry. In general terms: Isothermal titration calorimetry measures the heat released or taken up as one component is titrated into another.
For the molecule `CC[C@H](C)[C@H](NC(=O)[C@H](Cc1c[nH]c2ccccc12)NC(=O)[C@H](CCC(N)=O)NC(=O)[C@H](CC(N)=O)NC(=O)[C@@H](N)CO)C(=O)N[C@@H](CO)C(=O)N1CCC[C@H]1C(=O)N[C@@H](CCCNC(=N)N)C(=O)N[C@@H](CC(C)C)C(=O)N1CCC[C@H]1C(=O)N[C@@H](CCC(N)=O)C(=O)N[C@@H](Cc1cnc[nH]1)C(=O)O` (H-SNQWISPRLPQH-OH), the Kd – broadly, the constant that tells how readily two partners part at equilibrium – is more than 50 µM.
On to `CC[C@H](C)[C@H](NC(=O)[C@H](Cc1c[nH]c2ccccc12)NC(=O)[C@H](CCC(=O)O)NC(=O)[C@H](CC(N)=O)NC(=O)[C@@H](N)CO)C(=O)N[C@@H](CCC(N)=O)C(=O)N1CCC[C@H]1C(=O)N[C@@H](C)C(=O)N[C@@H](CC(C)C)C(=O)N1CCC[C@H]1C(=O)N[C@@H](CCC(N)=O)C(=O)N[C@@H](Cc1cnc[nH]1)C(=O)O` (H-SNEWIQPALPQH-OH), for which the Kd is more than 50 µM.
The same measure, in the same setting: as for `CC[C@H](C)[C@H](NC(=O)[C@H](Cc1c[nH]c2ccccc12)NC(=O)[C@H](CCC(N)=O)NC(=O)[C@H](CC(N)=O)NC(=O)[C@@H](N)CO)C(=O)N[C@@H](CCC(N)=O)C(=O)N1CCC[C@H]1C(=O)N[C@@H](CCCN=C(N)N)C(=O)N[C@@H](CC(C)C)C(=O)N1CCC[C@H]1C(=O)N[C@@H](CCC(N)=O)C(=O)N[C@@H](Cc1cnc[nH]1)C(=O)O` (H-SNQWIQPRLPQH-OH), the figure is more than 50 µM; as for `CC[C@H](C)[C@H](NC(=O)[C@@H]1CCCN1C(=O)CNC(=O)[C@H](CC(N)=O)NC(=O)[C@@H]1CCCN1C(=O)[C@H](CO)NC(=O)[C@H](Cc1ccccc1)NC(=O)[C@H](CC(C)C)NC(=O)[C@H](Cc1ccc(O)cc1)NC(=O)[C@H](CC(N)=O)NC(=O)[C@@H](N)[C@H](C)O)C(=O)N[C@@H](C)C(=O)N[C@@H](CCCN=C(N)N)C(=O)N[C@@H](C)C(=O)N[C@@H](Cc1c[nH]c2ccccc12)C(=O)O`, more than 50 µM.
`CC[C@H](C)[C@H](NC(=O)[C@H](Cc1c[nH]c2ccccc12)NC(=O)[C@H](CCC(N)=O)NC(=O)[C@H](CC(N)=O)NC(=O)[C@@H](N)CO)C(=O)N[C@@H](CC(C)C)C(=O)N1CCC[C@H]1C(=O)N[C@@H](CCCN=C(N)N)C(=O)N[C@@H](CC(C)C)C(=O)N1CCC[C@H]1C(=O)N[C@@H](CCC(N)=O)C(=O)N[C@@H](Cc1cnc[nH]1)C(=O)O` (H-SNQWILPRLPQH-OH): the Kd is more than 50 µM.
The molecule `CC[C@H](C)[C@H](NC(=O)[C@H](Cc1c[nH]c2ccccc12)NC(=O)[C@H](CCC(N)=O)NC(=O)[C@H](CC(N)=O)NC(=O)[C@@H](N)CO)C(=O)NCC(=O)N1CCC[C@H]1C(=O)N[C@@H](C)C(=O)N[C@@H](CC(C)C)C(=O)N1CCC[C@H]1C(=O)N[C@@H](CCC(N)=O)C(=O)N[C@@H](Cc1cnc[nH]1)C(=O)O` (H-SNQWIGPALPQH-OH) yielded a Kd of more than 50 µM.
The molecule `CC[C@H](C)[C@H](NC(=O)[C@H](Cc1c[nH]c2ccccc12)NC(=O)[C@H](CCC(=O)O)NC(=O)[C@H](CC(N)=O)NC(=O)[C@@H](N)CO)C(=O)N[C@@H](CCC(N)=O)C(=O)N1CCC[C@H]1C(=O)N[C@@H](Cc1cnc[nH]1)C(=O)N[C@@H](CC(C)C)C(=O)N1CCC[C@H]1C(=O)N[C@@H](CCC(N)=O)C(=O)N[C@@H](Cc1cnc[nH]1)C(=O)O` (H-SNEWIQPHLPQH-OH) yielded a dissociation constant (Kd) of more than 50 µM.

For another assay, the target named is T2, Ephrin type-B receptor 2 (Mus musculus, UniProt P54763).
T2 sequence (P54763 whole entry): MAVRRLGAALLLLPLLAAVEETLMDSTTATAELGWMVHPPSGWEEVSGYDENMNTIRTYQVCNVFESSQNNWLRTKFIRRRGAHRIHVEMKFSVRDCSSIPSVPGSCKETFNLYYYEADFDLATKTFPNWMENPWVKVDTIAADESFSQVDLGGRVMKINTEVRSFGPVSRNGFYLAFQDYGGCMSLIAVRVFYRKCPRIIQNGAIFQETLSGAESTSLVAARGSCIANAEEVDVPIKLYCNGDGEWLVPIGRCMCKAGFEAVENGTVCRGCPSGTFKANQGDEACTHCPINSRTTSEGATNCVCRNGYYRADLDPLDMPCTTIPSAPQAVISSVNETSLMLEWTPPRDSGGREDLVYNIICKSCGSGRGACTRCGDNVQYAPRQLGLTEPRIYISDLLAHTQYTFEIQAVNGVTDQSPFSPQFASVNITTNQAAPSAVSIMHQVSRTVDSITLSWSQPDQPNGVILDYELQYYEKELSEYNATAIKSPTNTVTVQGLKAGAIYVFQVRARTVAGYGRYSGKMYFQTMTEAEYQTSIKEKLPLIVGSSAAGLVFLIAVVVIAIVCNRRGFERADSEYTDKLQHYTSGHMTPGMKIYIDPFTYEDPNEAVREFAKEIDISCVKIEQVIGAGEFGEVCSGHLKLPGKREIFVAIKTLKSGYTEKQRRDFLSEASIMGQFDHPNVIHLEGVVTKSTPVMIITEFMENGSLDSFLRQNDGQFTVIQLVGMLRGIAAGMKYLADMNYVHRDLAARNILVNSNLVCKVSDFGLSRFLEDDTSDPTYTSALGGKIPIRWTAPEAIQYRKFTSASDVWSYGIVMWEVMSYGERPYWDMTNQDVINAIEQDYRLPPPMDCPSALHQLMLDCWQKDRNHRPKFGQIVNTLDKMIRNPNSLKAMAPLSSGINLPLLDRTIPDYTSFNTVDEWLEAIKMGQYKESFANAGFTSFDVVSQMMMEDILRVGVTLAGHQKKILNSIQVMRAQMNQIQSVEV
In words: Binding affinity at mouse EphB2 receptor by ELISA. A general note: An ELISA detects its analyte on a solid surface through an enzyme-linked reagent.
As to `CC[C@H](C)[C@H](NC(=O)[C@H](Cc1c[nH]c2ccccc12)NC(=O)[C@H](CCC(=O)O)NC(=O)[C@H](CC(N)=O)NC(=O)[C@@H](N)CO)C(=O)N[C@@H](CCC(N)=O)C(=O)N1CCC[C@H]1C(=O)N[C@@H](CCCNC(=N)N)C(=O)N[C@@H](CC(C)C)C(=O)N1CCC[C@H]1C(=O)N[C@@H](CCC(N)=O)C(=O)N[C@@H](Cc1cnc[nH]1)C(=O)O`, the IC50 (as a rule, the midpoint of a concentration-inhibition curve) is 15 µM. In other words, the double-digit micromolar range.
